Reference: PMC9645662, “Dual role of an essential HtrA2/Omi protease in the human malaria parasite: Maintenance of mitochondrial homeostasis and induction of apoptosis-like cell death under cellular stress” (PLOS Pathogens, 2022)

Molecular target: T1, PfHtrA2 (HtrA2/Omi serine protease) (Plasmodium falciparum, UniProt A0A143ZXD4)
T1 construct: gene PF3D7_0812200; protease domain (135–290 aa; HtrA2-protease), histidine-tagged, expressed in E. coli
T1 sequence (A0A143ZXD4 135-290): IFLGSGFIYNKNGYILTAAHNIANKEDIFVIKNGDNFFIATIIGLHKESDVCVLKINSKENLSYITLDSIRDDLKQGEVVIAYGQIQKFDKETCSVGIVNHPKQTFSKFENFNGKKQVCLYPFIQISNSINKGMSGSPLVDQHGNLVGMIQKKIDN
Assay: fluorogenic protease activity assay of the recombinant protease domain, concentration-dependent inhibition
Format: biochemical

O=C1C(=Cc2ccc(-c3ccccc3[N+](=O)[O-])o2)C(=O)N(c2ccccc2)C(=S)N1c1ccccc1 [ucf-101]
IC50: 8.1 µM
